Measurements from patent US8431563B2 (priority 2010, dated 2013).
Structures can show the parent of a compound that is named as a salt.

Key:
[1] = target: T1, GKRP (Glucokinase Regulatory Protein) with human His-hepatic GK (Homo sapiens, UniProt Q14397); assay: GKRP NADPH Coupled Assay; type: biochemical; settings: GK-GKRP EC50 (NADPH-coupled), indirect measure of glucose-6-phosphate, fluorescence; 1 μM GKRP (10×), 20 nM GK (5×)
T1 sequence (Q14397 1-625): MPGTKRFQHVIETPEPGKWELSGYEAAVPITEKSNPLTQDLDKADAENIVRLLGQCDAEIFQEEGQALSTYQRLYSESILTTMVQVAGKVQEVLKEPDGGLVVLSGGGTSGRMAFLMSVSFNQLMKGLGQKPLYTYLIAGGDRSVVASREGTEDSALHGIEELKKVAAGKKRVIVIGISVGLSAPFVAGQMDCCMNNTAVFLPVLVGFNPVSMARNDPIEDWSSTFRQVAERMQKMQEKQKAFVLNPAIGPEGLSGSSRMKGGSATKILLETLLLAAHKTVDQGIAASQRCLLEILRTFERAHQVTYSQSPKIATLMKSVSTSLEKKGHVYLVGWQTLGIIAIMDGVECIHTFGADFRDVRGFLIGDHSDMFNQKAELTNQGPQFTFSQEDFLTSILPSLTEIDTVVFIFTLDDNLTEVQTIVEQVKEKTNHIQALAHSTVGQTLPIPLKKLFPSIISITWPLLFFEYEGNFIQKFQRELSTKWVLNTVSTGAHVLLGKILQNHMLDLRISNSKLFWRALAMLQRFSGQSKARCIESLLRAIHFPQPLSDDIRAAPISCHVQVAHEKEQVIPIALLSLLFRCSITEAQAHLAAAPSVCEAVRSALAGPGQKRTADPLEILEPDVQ
Protocol: (§1) This assay is used to directly measure the formation of ^13C-glucose-6-phosphate from ^13C-glucose by liquid chromatography-mass spectrometry (LC MS/MS). Begin by preparing the following solutions: Compound Buffer (CB): 50 mM Tris, pH 7.5/4 mM MgCl2/6% DMSO/fresh 10 mM DTT from 1M frozen stock. Enzyme Buffer (EB): 50 mM Tris, pH 7.5/4 mM MgCl2/6% DMSO/fresh 0.1% BSA/fresh 0.01% Brij-35 (10% BSA and 1% Brij-35 stock). GK (Glucokinase) Working Stock (5×): Dilute human His-hepatic GK to 30 nM in EB buffer. […] After 30 minutes add 10 μl of GK Working Stock (5×). Re-seal the plate and incubate for another 30 minutes at room temperature while mixing. After the second 30 minutes, stop the reaction by the addition of 50 μl of 100% acetonitrile, seal, and mix for 5-10 minutes. Run 10 μl of this sample through the LC MS/MS (API 3200, Applied Biosystems Inc., Carlsbad, Calif.).
This assay is used as an indirect measure of glucose-6-phosphate (G6P) formed from glucose due to the enzymatic activity of glucokinase. Assay format is the same as for GKRP LC MS/MS Biochemical Assay with the following exceptions. GK Working Stock (5×): Dilute human His-hepatic GK to 20 nM in EB buffer. Stop & Detection Reagent (2×): Dilute β-nicotinamide adenine dinucleotide phosphate sodium salt (β-NADP) (Aldrich-Sigma, St. Louis, Mo.) to 2 mM from 100 mM stock (stock in 10 mM Tris, pH 9.2) and dilute glucose-6-phosphate dehydrogenase (Aldrich-Sigma, St. Louis, Mo.) to 0.04 Unit/μl from 10 Unit/μl (stock in 10 mM Tris pH 7.5/0.05% Brij-35) in 0.2 M Tris, pH 9.2/8% DMSO. After the initial 30 minute incubation add 10 μl of 20 nM GK diluted in EB (5×). Re-seal the plate and incubate for another 1 hour at room temperature while mixing. After 1 hour remove the seal and add 50 μl of Stop & Detection Reagent and incubate for 5 minutes at room temperature while mixing.

[2] = target: T1, GKRP (Glucokinase Regulatory Protein) with human His-hepatic GK; assay: GKRP LC MS/MS Biochemical Assay; settings: 13C-glucose-6-phosphate formation, 1 μM GKRP (10×), 30 nM GK (5×)
Protocol: GKRP LC MS/MS Biochemical Assay
as §1

[3] = target: T1, GKRP (Glucokinase Regulatory Protein) with human His-hepatic GK; assay: biochemical; settings: 13C-glucose-6-phosphate formation; 280 nM GKRP (10×), 30 nM GK (5×); read-out: GK-GKRP EC50 (LC MS/MS-2)
In short: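 Product formation, 13C-glucose-6-phosphate from 13C-glucose, was measured directly by LC MS/MS after acetonitrile quench. The GK reaction ran 30 min at room temperature in Tris pH 7.5 buffer with 4 mM MgCl2 and 6% DMSO. The 5× enzyme stock was 30 nM His-tagged human hepatic glucokinase.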

[4] = read-out: GK-GKRP EC50 (LC MS/MS)

Q: O=S(=O)(c1ccccc1F)N1CCN(c2ccc(C(O)(C(F)(F)F)C(F)(F)F)cc2)CC1 [Example 6, 1,1,1,3,3,3-hexafluoro-2-(4-(4-((2-fluorophenyl)sulfonyl)-1-piperazinyl)phenyl)-2-propanol] was tested. Which EC50 [1] did it give?
A: The EC50 was 1880 nM.

Q: And the EC50 ([2]; GK-GKRP EC50 (LC MS/MS))?
A: Its EC50 is 1520 nM.

Q: Which EC50 [1] does the source give for O=S(=O)(c1cccs1)N1CCN(c2ccc(C(O)(C(F)(F)F)C(F)(F)F)cc2-c2ccsc2)CC1 [Example 73, 1,1,1,3,3,3-hexafluoro-2-(3-(3-thiophenyl)-4-(4-(2-thiophenylsulfonyl)-1-piperazinyl)phenyl)-2-propanol] here?
A: The EC50 was 3500 nM.

Q: And the EC50 ([2]; GK-GKRP EC50 (LC MS/MS))?
A: The EC50 was 1900 nM.

Q: For CC(O)(c1ccc(N2CCN(S(=O)(=O)c3cccs3)CC2CN2CC3CCC(C2)O3)cc1)C(F)(F)F (racemic) [Example 46, 1,1,1-trifluoro-2-(4-(2-(8-oxa-3-azabicyclo[3.2.1]oct-3-ylmethyl)-4-(2-thiophenylsulfonyl)-1-piperazinyl)phenyl)-2-propanol], which EC50 [1] is on record?
A: Its EC50 is 154 nM.

Q: What about the EC50 ([2]; GK-GKRP EC50 (LC MS/MS)) of the same molecule?
A: The EC50 was 178 nM.

Q: O=S(=O)(c1nccs1)N1CCN(c2ccc(C(O)(C(F)(F)F)C(F)(F)F)cc2)CC1 [Example 33, 1,1,1,3,3,3-hexafluoro-2-(4-(4-(1,3-thiazol-2-ylsulfonyl)-1-piperazinyl)phenyl)-2-propanol trifluoroacetate] was tested. Which EC50 [1] did it give?
A: The EC50 was 664 nM.

Q: And the EC50 ([2]; GK-GKRP EC50 (LC MS/MS))?
A: The EC50 was 842 nM.

Q: CC[C@H]1CN(S(=O)(=O)c2cccs2)CCN1c1ccc(C(O)(C(F)(F)F)C(F)(F)F)cc1 [Example 63, 2-(4-((2S)-2-ethyl-4-(2-thiophenylsulfonyl)-1-piperazinyl)phenyl)-1,1,1,3,3,3-hexafluoro-2-propanol] was tested. Which EC50 [1] did it give?
A: Its EC50 is 679 nM.

Q: And the EC50 ([2]; GK-GKRP EC50 (LC MS/MS))?
A: The EC50 was 1370 nM.

Q: With C[C@H]1CN(S(=O)(=O)c2ccccc2)CCN1c1ccc(C(C)(O)C(F)(F)F)cc1 (mixture of isomers) [Example 28, 1,1,1-trifluoro-2-(4-((2S)-2-methyl-4-(phenylsulfonyl)-1-piperazinyl)phenyl)-2-propanol] as the molecule, how does the EC50 [1] read?
A: The EC50 was 3120 nM.

Q: And the EC50 ([2]; GK-GKRP EC50 (LC MS/MS))?
A: The EC50 was 4010 nM.

Q: How did the EC50 [2, 4] turn out when O=S(=O)(c1cccs1)N1CCN(c2ccc(C(O)(CO)C(F)(F)F)cc2)CC1 (single isomer, unassigned) [Example 66 Peak #2, 3,3,3-trifluoro-2-(4-(4-(2-thiophenylsulfonyl)-1-piperazinyl)phenyl)-1,2-propanediol] was run?
A: Its EC50 is 1260 nM.

Q: With O=S(=O)(c1cccs1)N1CCN(c2ccc(C(O)(CO)C(F)(F)F)cc2)CC1 (single isomer, unassigned) [Example 66 Peak #1, 3,3,3-trifluoro-2-(4-(4-(2-thiophenylsulfonyl)-1-piperazinyl)phenyl)-1,2-propanediol] as the molecule, how does the EC50 [2, 4] read?
A: Its EC50 is 4430 nM.

Q: For CC1(C#Cc2cc(C(C)(O)C(F)(F)F)ccc2N2CCN(S(=O)(=O)c3cccs3)CC2)COC1 (racemic) [Example 75, 1,1,1-trifluoro-2-(3-((3-methyl-3-oxetanyl)ethynyl)-4-(4-(2-thiophenylsulfonyl)-1-piperazinyl)phenyl)-2-propanol], which EC50 [1] is on record?
A: Its EC50 is 2900 nM.

Q: And the EC50 ([2]; GK-GKRP EC50 (LC MS/MS))?
A: The EC50 was 2800 nM.

Q: For O=S(=O)(c1cccs1)N1CCN(c2ccc(C(O)(C(F)(F)F)C(F)(F)F)cc2-c2ccc(O)cc2)CC1 [Example 74, 2′-(4-(2-thiophenylsulfonyl)-1-piperazinyl)-5′-(2,2,2-trifluoro-1-hydroxy-1-(trifluoromethyl)ethyl)-4-biphenylol], which EC50 [1] is on record?
A: Its EC50 is 1470 nM.

Q: And the EC50 ([2]; GK-GKRP EC50 (LC MS/MS))?
A: Its EC50 is 1370 nM.

Q: Which EC50 [1] does the source give for Cc1ccc(CC2CN(S(=O)(=O)c3cccs3)CCN2c2ccc(C(O)(C(F)(F)F)C(F)(F)F)cc2)cc1 (racemic) [Example 43, 1,1,1,3,3,3-hexafluoro-2-(4-(2-(4-methylbenzyl)-4-(2-thiophenylsulfonyl)-1-piperazinyl)phenyl)-2-propanol hydrochloride] here?
A: The EC50 was 2500 nM.

Q: And the EC50 ([2]; GK-GKRP EC50 (LC MS/MS))?
A: The EC50 was 2620 nM.

Q: Which EC50 [1] does the source give for CC(O)(c1ccc(N2CCN(S(=O)(=O)c3cccs3)C[C@@H]2Cc2ccccc2)cc1)C(F)(F)F (single isomer, unassigned) [Example 65 Peak #2] here?
A: Its EC50 is 166 nM.

Q: What about the EC50 ([2]; GK-GKRP EC50 (LC MS/MS)) of the same molecule?
A: The EC50 was 240 nM.

Q: With C[C@H]1COCCN1CC1CN(S(=O)(=O)c2cccs2)CCN1c1ccc(C(C)(O)C(F)(F)F)cc1 (single isomer, unassigned) [Example 45 Peak #1] as the molecule, how does the EC50 [1] read?
A: The EC50 was 52 nM.

Q: What about the EC50 ([2]; GK-GKRP EC50 (LC MS/MS)) of the same molecule?
A: Its EC50 is 62 nM.

Q: C[C@H]1CN(S(=O)(=O)c2cccs2)CCN1c1ccc(C(O)(CO)C(F)(F)F)cc1 (mixture of isomers) [Example 67, 2-(4-((2S)-2-methyl-4-(2-thiophenylsulfonyl)-1-piperazinyl)phenyl)-3,3,3-trifluoro-1,2-propanediol] was tested. Which EC50 [2, 4] did it give?
A: The EC50 was 670 nM.

Q: How did the EC50 ([2]; GK-GKRP EC50 (LC MS/MS)) turn out when O=S(=O)(c1cccs1)N1CCN(c2ccc(C(O)(CO)C(F)(F)F)cc2)[C@@H](Cc2ccccc2)C1 (single isomer, unassigned) [Example 68 Peak #2] was run?
A: Its EC50 is 94 nM.

Q: For CC(O)(c1ccc(N2CCN(S(=O)(=O)c3nccs3)CC2)cc1)C(F)(F)F (racemic) [Example 32, 1,1,1-trifluoro-2-(4-(4-(1,3-thiazol-2-ylsulfonyl)-1-piperazinyl)phenyl)-2-propanol trifluoroacetate], which EC50 ([2]; GK-GKRP EC50 (LC MS/MS)) is on record?
A: Its EC50 is 4750 nM.

Q: What does the source list for CC(O)(c1ccc(N2CCN(S(=O)(=O)c3cccs3)C[C@@H]2Cn2ccc3nccnc32)cc1)C(F)(F)F (mixture of isomers) [Example 171, 2-(4-((S)-2-((5H-pyrrolo[2,3-b]pyrazin-5-yl)methyl)-4-(thiophen-2-ylsulfonyl)piperazin-1-yl)phenyl)-1,1,1-trifluoro-2-propanol]?
A: EC50 [1]: 649 nM; EC50 [3]: 801 nM

Q: How did the EC50 [1] turn out when C[C@H]1COCCN1C[C@H]1CN(S(=O)(=O)c2ccc(N)nc2)CCN1c1ccc(C(O)(C(F)(F)F)C(F)(F)F)cc1 [Example 124, 2-(4-((2S)-4-((6-amino-3-pyridinyl)sulfonyl)-2-(((3S)-3-methyl-4-morpholinyl)methyl)-1-piperazinyl)phenyl)-1,1,1,3,3,3-hexafluoro-2-propanol] was run?
A: The EC50 was 1 nM.

Q: What about the EC50 [3] of the same molecule?
A: Its EC50 is 18 nM.

Q: Which EC50 ([2]; GK-GKRP EC50 (LC MS/MS)) does the source give for O=S(=O)(c1ccccc1)N1CCN(c2ncc(C(O)(C(F)(F)F)C(F)(F)F)cn2)CC1 [Example 23, 1,1,1,3,3,3-hexafluoro-2-(2-(4-(phenylsulfonyl)-1-piperazinyl)-5-pyrimidinyl)-2-propanol] here?
A: The EC50 was 1310 nM.

Q: How did the EC50 [1] turn out when CC(O)(c1ccc(N2CCN(S(=O)(=O)c3cccs3)C[C@@H]2Cn2ccc3cccnc32)cc1)C(F)(F)F (mixture of isomers) [Example 172, 2-(4-((S)-2-((1H-pyrrolo[2,3-b]pyridin-1-yl)methyl)-4-(thiophen-2-ylsulfonyl)piperazin-1-yl)phenyl)-1,1,1-trifluoro-2-propanol] was run?
A: Its EC50 is 253 nM.

Q: What about the EC50 [3] of the same molecule?
A: Its EC50 is 249 nM.

Q: CC(O)(c1ccc(N2CCN(S(=O)(=O)c3ccccc3)CC2)cc1)C(F)(F)F (single isomer, unassigned) [Example 24 Peak #2, 1,1,1-trifluoro-2-(4-(4-(phenylsulfonyl)-1-piperazinyl)phenyl)-2-propanol] was tested. Which EC50 ([2]; GK-GKRP EC50 (LC MS/MS)) did it give?
A: Its EC50 is 3010 nM.

Q: Which EC50 ([2]; GK-GKRP EC50 (LC MS/MS)) does the source give for O=S(=O)(c1cccs1)N1CCN(c2ccc(C(O)(CO)C(F)(F)F)cc2)[C@@H](Cc2ccccc2)C1 (single isomer, unassigned) [Example 68 Peak #1] here?
A: The EC50 was 870 nM.
